According to US20060247416A1, “HIV gp41 HR2-derived synthetic peptides, and their use in therapy to inhibit transmission of human immunodeficiency virus” (priority 2004, published 2006):

Assays:
[1] = 10 mg/ml in PBS, about pH 7.3 to about pH 7.5, 37° C., after several hours
Method: Each was individually tested for stability in aqueous solution by adding the peptide at a concentration of 10 mg/ml to phosphate-buffered saline (PBS), and by measuring (e.g., by HPLC) at different time points over a period of 1 week (168 hours) the amount of peptide remaining in solution at a range of about pH 7.3 to about pH 7.5 at 37° C.

HIV-1LAI = details: Lawless et al., 1996; cited from earlier work
HIV-1 = details: regimen of antiviral agents containing T20 versus same regimen without T20; cited from earlier work

## enfuvirtide
[1]
  stability in aqueous solution: minimal to no peptide detected in solution
HIV-1LAI
  EC50 against HIV-1LAI: 0.5 ng/mL
HIV-1
  HIV-1 viral load: significantly reduces
  circulating CD4+ cell population: significantly increases
